Data from PMC5737775 (Journal of Alzheimer's disease : JAD, 2017).

Assays:
[1] = target: rAβ42 (Aβ1-42) aggregation (Homo sapiens, UniProt P05067); assay: Thioflavin T assay of Aβ42 aggregation; type: biochemical; details: for anti-aggregation activity, result in words: Aβ1-42, 48 h, thioflavin T, 1, 3, 10, 30 μM
[2] = test system: IL-6 production by peritoneal macrophages stimulated with LPS; assay: IL-6 secretion by LPS-stimulated murine peritoneal macrophages; type: cell-based, C57Bl/6 mice; details: for inhibition of IL-6 at 30 μM: 30 μM compound, LPS 10 ng/mL; for anti-inflammatory activity (IL-6 secretion), result in words: LPS-stimulated macrophages, 1, 3, 10, 30 μM
[3] = test system: peritoneal macrophages; assay: MTT cytotoxicity assay on peritoneal macrophages; type: cell-based, C57Bl/6 mice; details: for cell viability (MTT): at the concentrations tested (1, 3, 10, 30 μM)

rAβ42 (Aβ1-42) aggregation, sequence (P05067 672-713 limits assumed): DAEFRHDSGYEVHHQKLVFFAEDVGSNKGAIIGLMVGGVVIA

SMILES	anti-aggregation activity, result in words [1]	IC50 [1]	inhibition of IL-6 at 30 μM [2]	anti-inflammatory activity (IL-6 secretion), result in words [2]	cytotoxicity (MTT) at 30 μM ([3]; 30 μM)	cell viability (MTT) [3]
C#CCOc1ccc(/C=C/C(=O)CC(=O)/C=C/c2ccc(OCC#C)c(OC)c2)cc1OC [Compound 2, (1E,6E)-1,7-bis(3-methoxy-4-(prop-2-yn-1-yloxy)phenyl)hepta-1,6-diene-3,5-dione]	did not present anti-aggregation activity	–	–	–	–	–
COc1cc(/C=C/C(O)=C/C(=O)/C=C/c2ccc(OCc3ccccc3)c(OC)c2)ccc1O [Compound 3, (1E, 4Z, 6E)-1-(4-(benzyloxy)-3-methoxyphenyl)-5-hydroxy-7-(4-hydroxy-3-metho-xyphenyl)hepta-1,4,6-trien-3-one]	inhibited the aggregation of Aβ in a concentration-dependent manner	–	–	–	–	–
COc1cc(/C=C/C(O)=C/C(=O)/C=C/c2ccc(OC(C)=O)c(OC)c2)ccc1O [Compound 4, 4-((1E,4Z,6E)-5-hydroxy-7-(4-hydroxy-3-methoxyphenyl)-3-oxohepta-1,4,6-trien-1-yl)-2-methoxyphenyl acetate]	inhibited the aggregation of Aβ in a concentration-dependent manner	1.32 ± 0.7 µM	–	–	–	–
C=CCOC(=O)CCC(=O)Oc1ccc(/C=C/C(=O)/C=C(O)/C=C/c2ccc(OC(=O)CCC(=O)OCC=C)c(OC)c2)cc1OC [Compound 5, diallyl O,O′-(((1E,3Z,6E)-3-hydroxy-5-oxohepta-1,3,6-triene-1,7-diyl)bis(2-methoxy-4,1-phenylene)) disuccinate]	inhibited the aggregation of Aβ in a concentration-dependent manner	–	complete inhibition	mid-to-strong inhibition	exhibited cytotoxicity	–
C=CCOC(=O)CCC(=O)Oc1ccc(/C=C/C(=O)/C=C(O)/C=C/c2ccc(O)c(OC)c2)cc1OC [Compound 6, allyl (4-((1E,4Z,6E)-5-hydroxy-7-(4-hydroxy-3-methoxyphenyl)-3-oxohepta-1,4,6-trien-1-yl)-2-methoxyphenyl) succinate]	inhibited the aggregation of Aβ in a concentration-dependent manner	1.77 ± 0.9 µM	complete inhibition	mid-to-strong inhibition	–	did not affect the cell viability
COc1cc(/C=C/C(=O)/C=C(O)/C=C/c2ccc(OC(=O)CCC(=O)OCc3ccccc3)c(OC)c2)ccc1OC(=O)CCC(=O)OCc1ccccc1 [Compound 7, dibenzyl O,O′-(((1E,3Z,6E)-3-hydroxy-5-oxohepta-1,3,6triene-1,7-diyl)bis(2-methoxy-4,1-phenylene)) disuccinate]	–	–	–	did not show any anti-inflammatory activity	–	–
COc1cc(/C=C/C(O)=C/C(=O)/C=C/c2ccc(OC(=O)CCC(=O)OCc3ccccc3)c(OC)c2)ccc1O [Compound 8, benzyl (4-((1E,4Z,6E)-5-hydroxy-7-(4-hydroxy-3-methoxyphenyl)-3-oxohepta-1,4,6-trien-1-yl)-2-methoxyphenyl) succinate]	did not present anti-aggregation activity	–	complete inhibition	mid-to-strong inhibition	–	did not affect the cell viability
COc1cc(C=CC(=O)C=C(O)C=Cc2ccc(OC(=O)CCC(=O)OC3CCCC3)c(OC)c2)ccc1OC(=O)CCC(=O)OC1CCCC1 [Compound 9, dicyclopentyl O,O′-(((1E,3Z,6E)-3-hydroxy-5-oxohepta-1,3,6-triene-1,7-diyl)bis(2-methoxy-4,1-phenylene)) disuccinate]	did not present anti-aggregation activity	–	–	did not show any anti-inflammatory activity	–	–
COc1cc(/C=C/C(O)=C/C(=O)/C=C/c2ccc(OC(=O)CCC(=O)OC3CCCC3)c(OC)c2)ccc1O [Compound 10, cyclopentyl (4-((1E,4Z,6E)-5-hydroxy-7-(4-hydroxy-3-methoxyphenyl)-3-oxohepta-1,4,6-trien-1-yl)-2-methoxyphenyl) succinate]	inhibited the aggregation of Aβ in a concentration-dependent manner	2.04 ± 0.7 µM	complete inhibition	mid-to-strong inhibition	–	did not affect the cell viability
